In US20230119324A1, “EGFR INHIBITION TRIGGERS AN ADAPTIVE RESPONSE BY CO-OPTING ANTIVIRAL SIGNALING PATHWAYS IN LUNG CANCER” (The United States Government as represented by the …, priority 2020, published 2023):

Legend:
[1] = tested on: Type I interferons (IFNα1, IFNβ1); experiment: qPCR and ELISA for Type I interferons in NSCLC cell lines; assay type: cell-based, human; conditions: BX795 1 µM, BMS-345541 0.1 µM
Description: Total RNA was isolated by TRIzol Reagent (Fisher Scientific). cDNA Reverse Transcription was performed by using High-Capacity cDNA Reverse Transcription Kit (Applied Biosystems). PCR primers were synthesized by IDT (Coralville, IA). Each PCR reaction was carried out in triplicate in a 20 µl volume using SYBR Green Master Mix (Applied Biosystems) for 15 minutes at 95° C. for initial denaturing, followed by 40 cycles of 95° C. for 15 s and 60° C. for 60 s in ViiA 7 Real-Time PCR System (Applied Biosystems). At least three independent experiments were done. Values for each gene were normalized to expression levels of ACTB (β-Actin) mRNA. Primer sequences were as follows.
To detect IFNα and IFNβ levels in medium, cells were cultured in serum free medium and treated with indicated drugs for 48 hours. Supernatant was then collected and concentrated using a Pierce protein concentrator (Thermo-Fisher). To test IFNα and IFNβ in lysates, cell and tumor lysates were extracted using RIPA buffer. Total protein concentrations were determined by Pierce BCA Protein Assay Kit (Fisher Scientific). Then, the levels of IFNα and IFNβ protein were measured by ELISA using human IFNα ELISA kit (41100) and human IFNβ ELISA kit (41440), from PBL Assay Science (Piscataway, NJ) according to the manufacturer’s protocol.
ATCB (β-Actin) expression was the loading control.
IFNα1 and IFNβ1 mRNA levels were detected by qPCR with β-Actin as the loading control.
IFNα1 and IFNβ1 mRNA levels were detected by qPCR. β-Actin was used as the loading control. Data refers to mean ± S.E.M, n=3 independent repeated experiments. One-way ANOVA with Dunnett’s test was used to determine adjusted p value for comparison between untreated and each treated sample. *: p<0.05, **: p<0.01, ***: p<0.001. H1666 is reported to harbor IFNA1 homodeletion in COSMIC (Catalogue Of Somatic Mutations In Cancer)-v90 http://cancer.sanger.ac.uk/cosmic (Updated 5 Sep. 2019), also in Data from a CPRIT (Cancer Prevention & Research Institute of Texas)-funded NGS (next generation sequencing) project by Dr. John Minna, UT Southwestern Medical Center, and Data from Dr. Adi Gazdar, UT Southwestern Medical Center. All other cell lines used in this research were searched on those databases above and confirmed to harbor neither IFNA1 nor IFNB1 homodeletion. Western blots are representative of 3 independent experiments with similar results. Cropped images are shown. Uncropped Western blot images are shown in Source Data.
The protein concentration of IFNα1 and IFNβ1 in cell lysates were measured by ELISA. […]
IFNA1 andIFNB1 mRNA levels were tested by qPCR. IκBα-DN overexpression was detected by Western blot. […]
Referring to FIGS. 14T-U, H1975 cells were treated with 0.1 µM Afatinib for indicated time points, IFNA1 and IFNB1 mRNA levels were detected by qPCR.

[2] = tested on: EGFR mutant NSCLC cell lines; experiment: AlamarBlue cell viability assay, EGFR mutant NSCLC cell lines; assay type: cell-based; conditions: for effect on pro-survival effect of exogenous Type I IFNs under EGFR inhibition: EGFR mutant lines, 50 ng/mL IFNα1 or IFNβ1, 72 h, Etanercept 50 µg/mL, BMS-345541 0.1 µM
Description: (§1) Cell viability assays were conducted with AlamarBlue Cell Viability Reagent from ThermoFisher (Waltham, MA), following the manufacturer’s protocol. Cells were cultured in Coming (Corning, NY) 96-well black plates with clear bottom and detected by the POLARstar Omega Microplate Reader (BMG LABTECH) (excitation at 544 nm and emission at 590 nm). At least 3 independent experiments were done.

[3] = tested on: TBK1 and IRF3; experiment: Western blot for TBK1 and IRF3 activation in NSCLC cell lines; assay type: cell-based; conditions: EGFR mutant cells; 0.1 µM erlotinib and 1 µM BX795, 24 hours
Description: (§2) Western blot and immunoprecipitation were performed according to standard protocols. Western blot results are representative of at least 3 independent experiments. EGFR (06-847) antibody was from EMD Millipore (Billerica, MA); p-EGFR (Tyr1068) (2236), p-TBK1 (Ser172) (5483), TBK1 (3504), IKKε (2905), IRF3 (11904), K63-Ub (12930), RIG-I (3743), STAT1 (9172), p-STAT1 (Tyr701) (9167), AhR (83200), LAMIN A/C (4777), STING (3337), p-STING (Ser366) (19781), PD1 (86163), PD-L1 (13684), PD-L2 (82723) and IκBα (4814) antibodies were from Cell Signaling Technology (Danvers, MA); IFNAR1 (sc-7391), IFNGR1 (sc-12755), TNFR1 (sc-8346), and β-Actin (sc-47778) were from Santa Cruz Biotechnology (Dallas, TX); TRIM32 (Mab6515) antibody was from R&D (Minneapolis, MN); p-IRF3 (Ser386) (ab76493) antibody was from Abcam (Cambridge, MA).

[4] = tested on: IRF3; experiment: ISRE / IFI27-ISRE luciferase reporter assay; assay type: cell-based; conditions: EGFR mutant cells; erlotinib 0.1 µM and 1 µM BX795, 24 h
Description: (§3) Cells were plated in 48 well dishes followed by plasmid transfection with two reporters detecting activation of IRF3, ISRE-luciferase reporter or IFI27-ISRE luciferase reporter^22, using lipofectamine 2000. A dual-luciferase reporter assay system was used according to the instructions of the manufacturer (Promega, Madison WI). Firefly luciferase activity was measured in the POLARstar Omega Microplate Reader (BMG LABTECH) and normalized based on Renilla luciferase activity. Three independent experiments were done in triplicate.

[5] = tested on: NF-κB; experiment: NF-κB luciferase reporter assay, TNF stimulation; assay type: cell-based; conditions: EGFR mutant lines; 10 µg/mL Etanercept 1 h, then 10 ng/mL TNF 24 h
Description: as §3
Referring to FIG. 16G and FIG. 16H, EGFR mutant lines were transfected with an NF-κB reporter for 48 h, followed by 10 µg/mL Etanercept for 1 h and then 10 ng/mL TNF for 24 h, followed by a luciferase assay or Western blot.

[6] = tested on: EGFRwt NSCLC cell lines; experiment: AlamarBlue cell viability assay, EGFRwt NSCLC cell lines; assay type: cell-based; conditions: 72 h
Description: as §1
Western blot confirming the silencing of IFNAR1.
Data represents mean ± S.E.M. of three independent repeated experiments. *: p<0.05, **: p<0.01, ***: p<0.001, by two-way ANOVA adjusted by Bonferroni’s correction. Western blots are representative of 3 independent experiments with similar results. Cropped images are shown. Uncropped Western blot images are shown in Source Data.

[7] = tested on: STAT1; experiment: Western blot for total and phosphorylated STAT1; assay type: cell-based; conditions: 0.1 or 1 µM erlotinib with 10 µg/mL Anifrolumab
Description: as §2
Cell lysates were collected and subjected to Western blot for detection of total and phosphorylated STAT1 expression. β-Actin was the loading control.

[8] = tested on: PD-L1; experiment: Western blot for PD-L1 in NSCLC cell lines; assay type: cell-based; conditions: HCC827 and H3255; 100 or 10 nM erlotinib 24 h, 10 µg/mL Anifrolumab
Description: as §2
PD-1, PD-L1, and PD-L2 expression was detected by Western blot. PD-L1 expression levels were partly shown above. Signalstrength was represented by symbols. -: undetected, +: weak, ++: expressed, +++: strong signals. Western blot and Immunofluorescent staining images are representative of 3 independent experiments with similar results. Cropped images are shown. Uncropped Western blot images are shown in Source Data.

[9] = tested on: HCC827 derived ER3, ER4A, ER4B, ER5; experiment: AlamarBlue assay in HCC827-derived erlotinib-resistant lines; assay type: cell-based; conditions: 10 µg/mL Anifrolumab with erlotinib, 72 hours
Description: as §1
(§4) IFNAR1 siRNA was confirmed by Western blot.

[10] = tested on: H1975 cells; experiment: AlamarBlue assay in H1975 cells; assay type: cell-based; conditions: 10 µg/mL Anifrolumab with 0.1 µM Afatinib, 72 hours
Description: as §1, §4

[11] = EGFR mutant cell lines, 0.1 µM erlotinib 24 h, Etanercept 10 µg/mL

For Cc1ccc2nc(NCCN)c3ncc(C)n3c2c1 [BMS-345541], the “effect on erlotinib-induced upregulation of IFN” value (“effect … of IFN” for short) ([1]; EGFRwt cell lines, 1 µM erlotinib 24 h) was “blocks EGFR inhibition-induced upregulation of IFN” and the “effect on pro-survival effect of exogenous Type I IFNs under EGFR inhibition” value ([2]; 0.1 µM erlotinib) was “fail to abrogate the protective effect of type I IFNs”.

With O=C(NCCCNc1nc(Nc2cccc(NC(=O)N3CCCC3)c2)ncc1I)c1cccs1 [BX-795] the “effect … of IFN” value [1, 11] was “completely suppressed erlotinib-induced upregulation of IFN”, the “combination with EGFR inhibition in cell viability assays” value ([2]; four EGFR mutant cell lines, 0.01 µM erlotinib and 1 µM BX795, 72 hours) was “synergized with EGFR inhibition” and the “effect on EGFR inhibition-induced IRF3 phosphorylation” value [3] was “loss of EGFR inhibition-induced IRF3 phosphorylation”. For the same molecule, the “effect on erlotinib-induced IRF3 transcriptional activity” value [4] was “loss of erlotinib-induced IRF3 transcriptional activity”.

With Etanercept the “effect … of IFN” value [1, 11] was “failed to inhibit erlotinib induced upregulation of type I IFNs”, the “effect on pro-survival effect of exogenous Type I IFNs under EGFR inhibition” value ([2]; 0.1 µM erlotinib) was “fails to block the pro-survival effects of IFNs” and the “effect on TNF-induced activation of NF-κB” value [5] was “efficiently blocked TNF-induced activation of NF-κB”.

B1: IFNα: Recombinant human IFNα1, exogenous Type I interferon (protein, UniProt P01562 24-189, looked up)
Interferon alpha-1/13: CDLPETHSLDNRRTLMLLAQMSRISPSSCLMDRHDFGFPQEEFDGNQFQKAPAISVLHELIQQIFNLFTTKDSSAAWDEDLLDKFCTELYQQLNDLEACVMQEERVGETPLMNADSILAVKKYFRRITLYLTEKKYSPCAWEVVRAEIMRSLSLSTNLQERLRRKE
For B1, the “protection from erlotinib-induced cell death” value ([2]; EGFR mutant cell lines, 0.1 µM erlotinib, IFNα1 or IFNβ1 50 ng/mL, 72 h) was “protects NSCLC cells with mutant EGFR activating from cell death”.

B2: Anifrolumab: monoclonal antibody directed against IFNAR that inhibits the binding of Type I IFNs to its receptor (antibody, chains of the INN, looked up)
heavy: EVQLVQSGAEVKKPGESLKISCKGSGYIFTNYWIAWVRQMPGKGLESMGIIYPGDSDIRYSPSFQGQVTISADKSITTAYLQWSSLKASDTAMYYCARHDIEGFDYWGRGTLVTVSSASTKGPSVFPLAPSSKSTSGGTAALGCLVKDYFPEPVTVSWNSGALTSGVHTFPAVLQSSGLYSLSSVVTVPSSSLGTQTYICNVNHKPSNTKVDKRVEPKSCDKTHTCPPCPAPEFEGGPSVFLFPPKPKDTLMISRTPEVTCVVVDVSHEDPEVKFNWYVDGVEVHNAKTKPREEQYNSTYRVVSVLTVLHQDWLNGKEYKCKVSNKALPASIEKTISKAKGQPREPQVYTLPPSREEMTKNQVSLTCLVKGFYPSDIAVEWESNGQPENNYKTTPPVLDSDGSFFLYSKLTVDKSRWQQGNVFSCSVMHEALHNHYTQKSLSLSPG
light: EIVLTQSPGTLSLSPGERATLSCRASQSVSSSFFAWYQQKPGQAPRLLIYGASSRATGIPDRLSGSGSGTDFTLTITRLEPEDFAVYYCQQYDSSAITFGQGTRLEIKRTVAAPSVFIFPPSDEQLKSGTASVVCLLNNFYPREAKVQWKVDNALQSGNSQESVTEQDSKDSTYSLSSTLTLSKADYEKHKVYACEVTHQGLSSPVTKSFNRGEC
B2 was tested, and the “sensitivity to erlotinib (cell viability)” value ([6]; EGFRwt lines with Ros1 mutation, EML4/ALK fusion, Met amplification, Braf mutation, 10 µg/mL Anifrolumab) was “resulted in sensitivity to erlotinib”, the “sensitivity to erlotinib (cell viability)” value ([6]; resistant EGFRwt/KRas cell lines, 1 µM erlotinib with 10 µg/mL Anifrolumab) was “enhanced sensitivity to erlotinib” and the “effect on erlotinib induced activation of STAT1” value [7] was “blocks erlotinib induced activation of STAT1”. For the same molecule, the “effect on erlotinib-induced upregulation of PD-L1” value [8] was “abrogated”, the “sensitivity to erlotinib in secondary resistant lines” value [9] was “restore sensitivity to erlotinib” and the sensitivity to afatinib [10] was “rendered sensitive to afatinib”.
